One test concerns the target T1, rat GPR55 (Rattus norvegicus, UniProt F1MAK4).
T1 construct: expressed in transfected cells; host or cells: HEK293 (human embryonic kidney) cells
T1 sequence (F1MAK4 1-319): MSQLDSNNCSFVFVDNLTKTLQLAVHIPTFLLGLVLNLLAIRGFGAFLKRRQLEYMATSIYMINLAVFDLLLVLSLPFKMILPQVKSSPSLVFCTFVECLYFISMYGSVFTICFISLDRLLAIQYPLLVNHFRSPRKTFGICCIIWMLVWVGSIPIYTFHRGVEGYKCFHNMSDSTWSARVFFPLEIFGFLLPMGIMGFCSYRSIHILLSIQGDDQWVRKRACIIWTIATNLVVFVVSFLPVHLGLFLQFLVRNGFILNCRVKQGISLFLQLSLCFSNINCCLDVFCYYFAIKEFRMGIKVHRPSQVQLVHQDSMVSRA
As to the kind of experiment: Ca2+ mobilization assay (FLIPR, Calcium5 dye), rat GPR55. To be noted: HEK293 cells co-expressing PK-tagged rat GPR55 and EA-tagged beta-arrestin; intracellular calcium increase. In kind it is cell-based. Here is the method:
(§1) This cell-based assay measures the ability of compounds to activate the GPR55 receptor by measuring changes in intracellular calcium levels. HEK293 (human embryonic kidney) cells co-expressing recombinant ProLink (PK) tagged human or rat GPR55 and Enzyme Acceptor (EA) tagged beta-arrestin were seeded into PDL-coated, black-walled clear-bottom 384 well plates in assay buffer (25 mM HEPES, HBSS, 1 mM Probenicid, 0.1% BSA, pH 7.4) containing Calcium5 dye (Molecular Devices). Cells were incubated in suspension with the Calcium5 dye for 1 hour at 37° C., 5% CO2. Dilution series of the compounds in assay buffer were added to the cells in duplicate wells and compound-mediated real-time increases in intracellular calcium concentration were recorded as increased fluorescence using the Molecular Devices FLIPR instrument. Kinetic traces were reduced to a numerical value by subtracting the minimum response from the maximum response.
(A change in cytosolic calcium serves as a functional read-out for many receptors and channels.)

The target of another test is T2, human GPR55 (Homo sapiens, UniProt Q9Y2T6).
T2 construct: expressed in transfected cells; host or cells: HEK293 (human embryonic kidney) cells
T2 sequence (Q9Y2T6 whole entry): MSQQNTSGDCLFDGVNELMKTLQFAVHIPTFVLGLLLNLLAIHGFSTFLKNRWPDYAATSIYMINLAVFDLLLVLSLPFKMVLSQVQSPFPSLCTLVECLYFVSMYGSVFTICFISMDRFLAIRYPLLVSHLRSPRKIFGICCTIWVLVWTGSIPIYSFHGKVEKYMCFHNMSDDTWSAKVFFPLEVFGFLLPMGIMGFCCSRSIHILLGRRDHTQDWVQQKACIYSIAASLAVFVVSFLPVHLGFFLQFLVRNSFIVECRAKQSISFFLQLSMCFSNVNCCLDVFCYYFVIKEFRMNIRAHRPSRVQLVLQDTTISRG
In words: Ca2+ mobilization assay (FLIPR, Calcium5 dye), human GPR55. In kind it is cell-based. Particulars: HEK293 cells co-expressing PK-tagged human GPR55 and EA-tagged beta-arrestin; intracellular calcium increase. The method, then: as §1

Consider `CC[S+]([O-])c1cncc(-c2ccc(N[C@H](C)c3ccc(F)cc3)nc2)c1` (stereo partly drawn) [Example 13, 5′-(ethylsulfinyl)-N-((R)-1-(4-fluorophenyl)ethyl)-[3,3′-bipyridin]-6-amine], for which the concentration giving a half-maximal response (EC50) at rat GPR55 is not above 5000 nM; on human GPR55, not above 200 nM.
For the compound `C[C@@H](Nc1ccc(-c2cncc([S+](C)[O-])c2)cn1)c1ccc(F)cc1` (stereo partly drawn) [Example 14, N-((R)-1-(4-fluorophenyl)ethyl)-5′-(methylsulfinyl)-[3,3′-bipyridin]-6-amine], the concentration giving a half-maximal response (EC50) on rat GPR55 is not above 5000 nM; at human GPR55, not above 200 nM.
Turning to `CCS(=O)(=O)c1cncc(-c2ccc(N[C@H](C)c3ccc(F)cc3)nc2)c1` [Example 15, (R)-5′-(ethylsulfonyl)-N-(1-(4-fluorophenyl)ethyl)-[3,3′-bipyridin]-6-amine], the figures for the half-maximal effective concentration (EC50) on rat GPR55 and on human GPR55 were not above 1000 nM and not above 200 nM, respectively.
For `CCc1cncc(-c2cnc(N[C@H](C)c3ccc(F)cc3)cn2)c1` [Example 17, (R)-5-(5-ethylpyridin-3-yl)-N-(1-(4-fluorophenyl)ethyl)pyrazin-2-amine], in that order: not above 1000 nM and not above 50 nM.
As for `C[C@@H](Nc1cnc(-c2cncc(S(C)(=O)=O)c2)cn1)c1ccc(F)cc1` [Example 18, (R)-N-(1-(4-fluorophenyl)ethyl)-5-(5-(methylsulfonyl)pyridin-3-yl)pyrazin-2-amine], the 50% effective concentration (EC50) at rat GPR55 and at human GPR55 was not above 50 nM throughout.
For `CCc1cncc(-c2ccc(N[C@H](C)c3ccccc3F)nc2)c1` [Example 19, (R)-5′-ethyl-N-(1-(2-fluorophenyl)ethyl)-[3,3′-bipyridin]-6-amine], the EC50 at rat GPR55 and on human GPR55 was not above 1000 nM in each case.
Turning to `C=Cc1cncc(-c2ccc(N[C@H](C)c3ccc(F)cc3)nc2)c1` [Example 20, (R)-N-(1-(4-fluorophenyl)ethyl)-5′-vinyl-[3,3′-bipyridin]-6-amine], the EC50 at rat GPR55 and at human GPR55 was not above 50 nM throughout.
For the compound `CCc1cncc(-c2ccc(N[C@@H]3CCc4ccccc43)nc2)c1` [Example 21, (R)-N-(2,3-dihydro-1H-inden-1-yl)-5′-ethyl-[3,3′-bipyridin]-6-amine], the concentration giving a half-maximal response (EC50) at rat GPR55 was not above 5000 nM; on human GPR55 it was not above 200 nM.
Regarding `Cc1nc(N[C@H](C)c2ccc(F)cc2)ccc1-c1cncc(S(C)(=O)=O)c1` [Example 22, (R)-N-(1-(4-fluorophenyl)ethyl)-2-methyl-5′-(methylsulfonyl)-[3,3′-bipyridin]-6-amine], the EC50 at rat GPR55 is not above 5000 nM; at human GPR55, not above 200 nM.
As to `C[C@@H](Nc1cnc(-c2cncc([S+](C)[O-])c2)cn1)c1ccc(F)cc1` (stereo partly drawn) [Example 23, N-((R)-1-(4-fluorophenyl)ethyl)-5-(5-(methylsulfinyl)pyridin-3-yl)pyrazin-2-amine], the concentration for a half-maximal effect (EC50) on rat GPR55 is not above 5000 nM; on human GPR55, not above 1000 nM.
The matching figures for `CC[S+]([O-])c1cncc(-c2cnc(N[C@H](C)c3ccc(F)cc3)cn2)c1` (stereo partly drawn) [Example 24, 5-(5-(ethylsulfinyl)pyridin-3-yl)-N-((R)-1-(4-fluorophenyl)ethyl)pyrazin-2-amine]: not above 5000 nM and not above 200 nM.
Regarding `C[C@@H](Nc1cnc(-c2cnc3oc(=O)n(C)c3c2)cn1)c1ccc(F)cc1` [Example 26, (R)-6-(5-((1-(4-fluorophenyl)ethyl)amino)pyrazin-2-yl)-1-methyloxazolo[5,4-b]pyridin-2(1H)-one], the values for the EC50 on rat GPR55 and at human GPR55 were not above 5000 nM and not above 1000 nM, respectively.
For `C[C@@H](Nc1ncc(-c2cncc(S(C)(=O)=O)c2)nn1)c1ccc(F)cc1` [Example 28, (R)-N-(1-(4-fluorophenyl)ethyl)-6-(5-(methylsulfonyl)pyridin-3-yl)-1,2,4-triazin-3-amine], the values for the EC50 at rat GPR55 and on human GPR55 were not above 1000 nM and not above 50 nM, respectively.
The matching figures for `C=Cc1cncc(-c2cnc(N[C@H](C)c3ccc(F)cc3)cn2)c1` [Example 33, (R)-N-(1-(4-fluorophenyl)ethyl)-5-(5-vinylpyridin-3-yl)pyrazin-2-amine]: not above 1000 nM and not above 50 nM.
Turning to `C[C@@H](Nc1cnc(-c2cncc(C=C(F)F)c2)cn1)c1ccc(F)cc1` [Example 34, (R)-5-(5-(2,2-difluorovinyl)pyridin-3-yl)-N-(1-(4-fluorophenyl)ethyl)pyrazin-2-amine], the EC50 was not above 1000 nM on rat GPR55 and not above 50 nM on human GPR55.
For `C[C@@H](Nc1cnc(-c2cncc(CCO)c2)cn1)c1ccc(F)cc1` [Example 35, (R)-2-(5-(5-((1-(4-fluorophenyl)ethyl)amino)pyrazin-2-yl)pyridin-3-yl)ethan-1-ol], in that order: not above 5000 nM and not above 50 nM.
In the case of `CS(=O)(=O)c1cncc(-c2cnc(N[C@@H]3CCc4ccccc43)cn2)c1` [Example 36, (R)-N-(2,3-dihydro-1H-inden-1-yl)-5-(5-(methylsulfonyl)pyridin-3-yl)pyrazin-2-amine], the results for the EC50 on rat GPR55 and at human GPR55 were not above 5000 nM and not above 200 nM, respectively.
For the compound `CNCc1cncc(-c2cnc(N[C@H](C)c3ccc(F)cc3)cn2)c1` [Example 37, (R)-N-(1-(4-fluorophenyl)ethyl)-5-(5-(methylamino)methylpyridin-3-yl)pyrazin-2-amine], the half-maximal effective concentration (EC50) on rat GPR55 is not above 50 nM; on human GPR55, not above 200 nM.
On to `CS(=O)(=O)c1cncc(-c2ccc(NC3CCc4cc(F)ccc43)nc2)c1` (centres unmarked) [Example 38, N-(5-fluoro-2,3-dihydro-1H-inden-1-yl)-5′-(methylsulfonyl)-[3,3′-bipyridin]-6-amine], for which the results for the EC50 at rat GPR55 and at human GPR55 were not above 50 nM and not above 1000 nM, respectively.
For `C[C@@H](Nc1cnc(-c2cncc(OC(F)F)c2)cn1)c1ccc(F)cc1` [Example 39, (R)-5-(5-(difluoromethoxy)pyridin-3-yl)-N-(1-(4-fluorophenyl)ethyl)pyrazin-2-amine], the half-maximal effective concentration (EC50) on rat GPR55 and on human GPR55 was not above 1000 nM in each case.
For `C[C@@H](Nc1ncc(-c2cncc(C=C(F)F)c2)nn1)c1ccc(F)cc1` [Example 40, (R)-6-(5-(2,2-difluorovinyl)pyridin-3-yl)-N-(1-(4-fluorophenyl)ethyl)-1,2,4-triazin-3-amine], the EC50 is not above 5000 nM at rat GPR55 and not above 200 nM at human GPR55.
On to `C[C@@H](Nc1ncc(-c2cncc(CO)c2)nn1)c1ccc(F)cc1` [Example 41, (R)-(5-(3-((1-(4-fluorophenyl)ethyl)amino)-1,2,4-triazin-6-yl)pyridin-3-yl)methanol], for which the EC50 on rat GPR55 is not above 1000 nM; at human GPR55, not above 200 nM.
As to `C[C@@H](Nc1cnc(-c2cncc(OCC(F)(F)F)c2)cn1)c1ccc(F)cc1` [Example 42, (R)-N-(1-(4-fluorophenyl)ethyl)-5-(5-(2,2,2-trifluoroethoxy)pyridin-3-yl)pyrazin-2-amine], the half-maximal effective concentration (EC50) was not above 1000 nM at rat GPR55 and not above 200 nM at human GPR55.
On to `C[C@@H](Nc1cnc(-c2cncc(OC(F)(F)F)c2)cn1)c1ccc(F)cc1` [Example 43, (R)-N-(1-(4-fluorophenyl)ethyl)-5-(5-(trifluoromethoxy)pyridin-3-yl)pyrazin-2-amine], for which the values for the EC50 at rat GPR55 and on human GPR55 were not above 5000 nM and not above 50 nM, respectively.
Consider `C=Cc1cc(-c2cnc(N[C@H](C)c3ccc(F)cc3)cn2)cnn1` [Example 44, (R)-N-(1-(4-fluorophenyl)ethyl)-5-(6-vinylpyridazin-4-yl)pyrazin-2-amine], for which the half-maximal effective concentration (EC50) is not above 5000 nM on rat GPR55 and not above 1000 nM on human GPR55.
Consider `OC(c1cncc(-c2cnc(N[C@@H]3CCc4ccccc43)cn2)c1)C(F)F` (stereo partly drawn) [Example 45, 1-(5-(5-(((R)-2,3-dihydro-1H-inden-1-yl)amino)pyrazin-2-yl)pyridin-3-yl)-2,2-difluoroethan-1-ol], for which the concentration for a half-maximal effect (EC50) at rat GPR55 was not above 1000 nM; on human GPR55, not above 200 nM.
As to `CCc1cncc(-c2ccc(N[C@H](C)c3ccc(OC)cc3)nc2)c1` [Example 47, (R)-5′-ethyl-N-(1-(4-methoxyphenyl)ethyl)-[3,3′-bipyridin]-6-amine], the EC50 on rat GPR55 is not above 5000 nM; on human GPR55 it was not above 1000 nM.
In the case of `CCc1cncc(-c2ccc(N[C@H](C)c3cccc(F)c3)nc2)c1` [Example 48, (R)-5′-ethyl-N-(1-(3-fluorophenyl)ethyl)-[3,3′-bipyridin]-6-amine], the EC50 was not above 1000 nM at rat GPR55 and not above 50 nM at human GPR55.
For `CCc1cncc(-c2ccc(N[C@H](C)c3ccccc3)nc2)c1` [Example 49, (R)-5′-ethyl-N-(1-phenylethyl)-[3,3′-bipyridin]-6-amine], in that order: not above 1000 nM and not above 50 nM.
`CCc1cncc(-c2ccc(N[C@H](C)c3ccc(C)cc3)nc2)c1` [Example 50, (R)-5′-ethyl-N-(1-(p-tolyl)ethyl)-[3,3′-bipyridin]-6-amine]: the figures for the EC50 on rat GPR55 and at human GPR55 were not above 5000 nM and not above 1000 nM, respectively.
On to `C#Cc1cncc(-c2ccc(N[C@H](C)c3ccc(F)cc3)nc2)c1` [Example 51, (R)-5′-ethynyl-N-(1-(4-fluorophenyl)ethyl)-[3,3′-bipyridin]-6-amine], for which the concentration for a half-maximal effect (EC50) at rat GPR55 is not above 1000 nM; on human GPR55 it was not above 50 nM.

As a reminder, the EC50 is the concentration needed to bring the measured effect to its halfway point.

The record behind these values is US20250282728A1, “NITROGEN COMPRISING HETEROCYCLIC DERIVATIVES FOR THE TREATMENT OF DISORDERS ASSOCIATED WITH GPR55 RECEPTOR” (Cerevance, Inc., priority 2022, published 2025).
